Measured values reported in US20160287613A1, “SALICYLATES FOR USE IN THE TREATMENT OF CANCER” (priority 2013, published 2016).
“Also recorded” adds a separate entry of the source.

Assays:
[1] = tested on: bladder cancer cell line RT 112; test: Lactate transport (export): enzymatic determination of lactate in supernatants at 340 nm; type: cell-based, human; conditions: RT 112, 0.2 mM albumin, pH 6.5 to 7.4, FIG. 1a/b
Procedure: The human bladder tumor cell line RT112 or the human chronic myeloid leukemia cell line K562 were purchased from DKFZ Tumorzell- und datenbank (Institut für experimentelle Pathologie, Heidelberg, FRG) or DSM (Deutsche Sammlung von Mikroorganismen und Zellkulturen GmbH, Braunschweig, FRG) supplemented with 2 mM L-glutamine (BIOCHROM, Berlin, FRG), 1% NEAE (BIOCHROM), 10% heat-inactivated fetal calf serum (BIOCHROM), 100 U/ml penicillin and 50 μg/ml Streptomycin (BIOCHROM) at 37 oc and 5% co2. Only mycoplasma-free cell cultures were used; this was frequently tested using a specific detection kit (BOEHRINGER MANNHEIM, Mannheim, FRG). Qualitative, Enzymatic Determination of Lactate in Supernatants of RT112 Cells at 340 nm RT112 cells were harvested, washed twice and re-suspended in culture media to yield a density of 2×10^5/ml. 500 μl/well of the RT112 cell suspension were seeded into 24 well microtiter plates (BD) and incubated over night at 37° C. and 5% C˜. The Supernatant was replaced by 450 pl pH-adjusted culture medium (pH 6.0-7.4) and 50 111 of the solution of preferred substances or 500 111/well pH-adjusted culture medium alone (control). Again, the cells were incubated for 24 hat 37° C. and 5% CO2. The measurement of lactate in the supernatants at 340 nm (PERKIN-ELMER, Lambda 17. UV-VIS Spectrophotometer, Überlingen, FRG) was performed according to the manufacturer's instructions (SIGMA DIAGNOSTICS, Deisenhofen, FRG; Lactate: Quantitative, Enzymatic Determination of Lactate in Whole Blood at 340 nm (Procedure No. 826-UV)).

cancer cells = test: Patient tests with high ASA doses; type: in vivo, human; conditions: high ASA doses of 90-120 mg/kg bodyweight
Procedure: But in the course of tests it became apparent how to artificially activate the immune system to be conditioned for killing cancer cells in basic environment. The “protection factor” also can be eliminated by the administration of high ASA doses of between 90-120 mg/kg bodyweight of the patient. […] The administered doses that provide this effect are between 90-120 mg/kg bodyweight of the patient of ASA.

RT 112 cancer cells = test: Proliferation, [3H]-TdR (3H-thymidine) incorporation assay; type: cell-based, human; conditions: FIG. 2a
Procedure: The human bladder tumor cell line RT112 or the human chronic myeloid leukemia cell line K562 were purchased from DKFZ Tumorzell- und datenbank (Institut für experimentelle Pathologie, Heidelberg, FRG) or DSM (Deutsche Sammlung von Mikroorganismen und Zellkulturen GmbH, Braunschweig, FRG) supplemented with 2 mM L-glutamine (BIOCHROM, Berlin, FRG), 1% NEAE (BIOCHROM), 10% heat-inactivated fetal calf serum (BIOCHROM), 100 U/ml penicillin and 50 μg/ml Streptomycin (BIOCHROM) at 37 oc and 5% co2. Only mycoplasma-free cell cultures were used; this was frequently tested using a specific detection kit (BOEHRINGER MANNHEIM, Mannheim, FRG). The influence of cytotoxic molecules on the proliferation of RT112 tumor cells was quantified by the measurement of the incorporated tritiated thymidine ([^3H]-TdR) into the cellular DNA of the tumor cells by liquid scintillation counting (LSC). In brief, RT112 cells are harvested, washed twice and re-suspended in culture media (2.5×10^5 /ml). 100 μl/well of the RT112 cell suspension were seeded into 96 well microtiter plates (BECTON DICKINSON) and incubated over night at 37 ° C. and 5% CO2. The supernatant was replaced by 90 μl pH-adjusted culture medium (pH 6.0-7.4) and 10 μl of the solution of preferred substances or 10 μl/well pH-adjusted culture medium alone (control). The cells were incubated for various time periods at 37° C. and 5% CO2. Thereafter, cells were washed twice and re-incubated in fresh pH-adjusted culture medium. And pulsed for 24 h by the addition of 23.125 kBq [^3]-TdR/well (925 kBq/ml, AMERSHAM, Braunschweig, FRG). After freezing and thawing, radioactive DNA of the cultures were transferred to glass fiber filters with an automatic cell harvester (PHARMACIA). The incorporated radioactivity was measured in a liquid scintillation counter (PHARMACIA).

SMILES	lactate efflux (export) compared to the Control [1]	"protection factor" of cancer cells against immune attack (cancer cells)	proliferation of cancer cells (cancer cells)	proliferation (3H-thymidine incorporation) vs control (RT 112 cancer cells; ASA at 1 mM and 2 mM, pH 6.5-7.4, 0.2 mM albumin)	proliferation (3H-thymidine incorporation) vs control (RT 112 cancer cells; above pH 7.1, 0.2 mM albumin)	proliferation (3H-thymidine incorporation) vs control (RT 112 cancer cells; up to pH 7.1, 0.2 mM albumin)
CC(=O)Oc1ccccc1C(=O)O [ASA, acetylsalicylic acid]	produce stimulation of lactate export all over the pH range; also recorded: accelerate the lactate efflux all over the pH range from pH 6.5 to 7.4	eliminated	proliferation was stopped	appreciable enhancement of proliferation	–	–
O=C(O)c1cc(-c2ccc(F)cc2F)ccc1O [Diflunisal, 5-[2,4-difluorophenyl]-salicylic acid]	produce stimulation of lactate export all over the pH range; also recorded: accelerate the lactate efflux all over the pH range from pH 6.5 to 7.4	–	–	–	produces enhancement	inhibits proliferation slightly
Nc1ccc(C(=O)O)c(O)c1 [PAS, 4-aminosalicylic acid]	accelerate the lactate efflux all over the pH range from pH 6.5 to 7.4	–	–	–	–	–
